Data taken from ChEMBL document CHEMBL1150745, “Plant anticancer agents, XLVI. Cytotoxic casbane-type constituents of Agrostistachys hookeri” (1988).
≈ marks a conversion by molar mass, not a printed value.

Each molecule was assayed on P388 (assay: Cytotoxicity against mouse P388 cells). Conditions: read-out: ED50 (the source's name).
Type: functional

Structure (SMILES) | EC50
C/C1=C/C(=O)C/C(C)=C/[C@H](O)C(=O)/C(C)=C/[C@H]2[C@@H](CC1)C2(C)C | 2.8 µg/mL (≈ 8.85 µM)
C/C1=C/[C@H](O)C/C(C)=C/[C@H](O)C(=O)/C(C)=C/[C@H]2[C@@H](CC1)[C@]2(C)CO | 0.8 µg/mL (≈ 2.39 µM)
C/C1=C\[C@H](O)C(=O)/C(C)=C/[C@@H]2[C@@H](CCC(C)(O)/C=C/C1)C2(C)C (some centres undefined) [AGROSKERIN] | 1.4 µg/mL (≈ 4.4 µM)
C/C1=C/[C@H](O)C/C(C)=C/[C@H](O)C(=O)/C(C)=C/[C@H]2[C@@H](CC1)C2(C)C [AGROSTISTACHIN] | 1.4 µg/mL (≈ 4.4 µM)
